Source: patent publication US20130059894A1, “PESTICIDAL COMPOSITION AND ITS USE” (SUMITOMO CHEMICAL COMPANY, LIMITED, priority 2010, published 2013)

Tested on: Rhizoctonia solani
Assay: Soybean seed treatment test against disease caused by Rhizoctonia solani in contaminated soil
Format: in vivo, Rhizoctonia solani on soybean (variety: Natto shoryu)
Details: seed treatment of soybean; carboxamide compound 0.2 g/100 kg of seeds alone (no sulfoxaflor); cultivated 20 days in soil contaminated by Rhizoctonia solani
Experimental: A cyclohexanone solution (100 microL) containing prescribed amount (weight) of a test compound was applied on seeds of soybean (variety: Natto shoryu) (10 g) by using a rotary apparatus for seed treatment (Seed dresser, manufactured by Hans-Ulrich Hege GmbH). One day after the application, plastic pot was filled with soil contaminated by Rhizoctonia solani, and the seeds treated with the test compounds were seeded in the soil and cultivated in a glass-greenhouse for 20 days (hereinafter referred to as “treated plot”). Thereafter, the presence of disease caused by Rhizoctonia solani in the young plants which germinated from each seed was observed and disease severity was calculated according to the following calculation formula (1). On the other hand, seeds of soybean which are not treated as above were cultivated in the same way as above (hereinafter referred to as “non-treated plot”) and the disease severity in the “non-treated plot” was calculated in the same way as the above “treated plot”. On the basis of the above severity in “treated plot” and “non-treated plot”, efficacy in “treated plot” was evaluated according to the following calculation formula (2). […]

## Cc1nn(C)c(C)c1C(=O)Nc1cccc2c1C(C)CC2(C)C (stereo not shown) [carboxamide compound (5)]
  efficacy (%): 15.8%
